Assay results taken from article PMC4935745, “Synthesis and stereochemical determination of an antiparasitic pseudo-aminal type monoterpene indole alkaloid” (Journal of Natural Medicines, 2016).
Converted amounts (≈) assume the structure as drawn. Like-named read-outs stand apart in the source and are kept apart here.

Key:
Type in all cases: cell-based
[1] = tested on: Plasmodium falciparum (chloroquine-susceptible FCR3 strain); assay: In vitro antimalarial activity, FCR3 strain; conditions: for Selectivity index (SI) M/F: MRC-5/FCR3; for IC50: Plasmodium falciparum, FCR3, chloroquine-sensitive strain, in vitro
Protocol: (§1) Naturally occurring and synthetic compounds were tested for antimalarial activity against Plasmodium falciparum parasites (chloroquine-resistant K1 strain and chloroquine-susceptible FCR3 strain) and for cytotoxicity (against human MCR-5 cells), in comparison with the first-line antimalarial artemisinin.

[2] = Cytotoxicity against human MRC-5 cells; conditions: human
Protocol: as §1

[3] = tested on: Plasmodium falciparum (chloroquine-resistant K1 strain); assay: In vitro antimalarial activity, K1 strain; conditions: for Selectivity index (SI) M/K: MRC-5/K1; for IC50: Plasmodium falciparum, K1, chloroquine-resistant strain
Protocol: as §1

MRC-5 cells = assay: Cytotoxicity against human MRC-5 cells; conditions: human MRC-5 cells
Protocol: as §1

[4] = MRC-5 cells, human MRC-5 cells, read-out: Cytotoxicity MRC-5 IC50

Compound | IC50 [1] [µg/mL] | IC50 ([3]; in vitro) [µg/mL] | Antimalarial activity K1 IC50 ([3]; chloroquine-resistant strain, in vitro) [µg/mL] | Selectivity index (SI) M/F [1] | IC50 [2, 4] [µg/mL] | Selectivity index (SI) M/K [3] | Cytotoxicity MRC-5 IC50 (MRC-5 cells) [µg/mL] | Antimalarial activity against chloroquine-resistant P. falciparum (in words) ([3]; K1 strain, in vitro) | IC50 ([2]; Cytotoxicity MRC-5 IC50) [µg/mL]
C/C=C1/CNCC[C@@H]1[C@@](C)(O)c1cc2ccccc2[nH]1 (racemic) [(±)-(15S,16R)-37] | > 12.5 | 8.98 (≈ 33.2 µM) |  | <3.3 | 40.8 (≈ 151 µM) | 4.5 |  |  | 
C/C=C(/COC(=O)C(C)(C)C)[C@H](CCN=[N+]=[N-])[C@@](C)(O)c1cc2ccccc2n1CO[Si](C)(C)C(C)(C)C [(−)-(15S,16R)-32] | > 12.5 | > 12.5 |  |  |  |  |  |  | 
C/C=C(/CO)[C@H](CCN=[N+]=[N-])[C@@](C)(O)c1cc2ccccc2[nH]1 [(−)-(15S,16R)-33] | 7.17 (≈ 22.8 µM) | 7.58 (≈ 24.1 µM) |  | 2.5 | 17.8 (≈ 56.6 µM) | 2.3 |  |  | 

The next lines start with results.

IC50 [1] [µg/mL] | IC50 ([3]; in vitro) [µg/mL] | Antimalarial activity K1 IC50 ([3]; chloroquine-resistant strain, in vitro) [µg/mL] | Compound | Selectivity index (SI) M/F [1] | IC50 [2, 4] [µg/mL] | Selectivity index (SI) M/K [3] | Cytotoxicity MRC-5 IC50 (MRC-5 cells) [µg/mL] | Antimalarial activity against chloroquine-resistant P. falciparum (in words) ([3]; K1 strain, in vitro) | IC50 ([2]; Cytotoxicity MRC-5 IC50) [µg/mL]
 | > 12.5 |  | CC=C1CN2CCC1C(C)(O)c1[nH]c3ccccc3c1C2 (racemic) [Synthetic (±)-(15S*,16S*)-1, (±)-(15S*,16S*)-16-hydroxy-16,22-dihydroapparicine] |  | 33.3 (≈ 118 µM) |  |  |  | 
8.37 (≈ 29.6 µM) |  | 9.00 | CC=C1CN2CCC1C(C)(O)c1[nH]c3ccccc3c1C2 (single isomer, unassigned; (+)) [Synthetic (+)-(15S,16R)-1] | 6.1 |  | 5.7 | 51.2 | moderate/weak antimalarial activity | 
> 12.5 | 8.04 (≈ 18.4 µM) |  | C/C=C(/COc1ncccc1[N+](=O)[O-])[C@H](CCN=[N+]=[N-])[C@@](C)(O)c1cc2ccccc2[nH]1 [(−)-(15S,16R)-34] |  | > 100 | >12.4 |  |  | 
> 12.5 | 9.38 (≈ 48 µM) |  | C/C=C1/C(=O)O[C@H](C)[C@H]1CCN=[N+]=[N-] [(−)-(15S,16R)-39] | <4.3 | 54 (≈ 277 µM) | 5.8 |  |  | 
0.006 (≈ 0.0213 µM) | 0.006 (≈ 0.0213 µM) |  | C[C@@H]1CC[C@H]2[C@@H](C)C(=O)O[C@@H]3O[C@@]4(C)CC[C@@H]1[C@]32OO4 [Artemisinin, reference compound] | 7528 |  | 7528 |  |  | 45.2 (≈ 160 µM)
